According to patent US8372879B2, “4-(heterocycloalkyl) benzene-1,3-diol compounds as tyrosinase inhibitors, process for the preparation thereof and use thereof in human medicine and also in cosmetics” (Galderma Research & Development, priority 2008, dated 2013):

Key:
[1] = system: MNT1 human melanoma cells; assay: Melanogenesis inhibition assay (14C-thiouracil incorporation standardized through 3H-leucine); format: cell-based; settings: MNT-1, incubation for 24 h, 14C incorporation standardized through 3H incorporation
Description: (§1) The inhibition of melanogenesis is measured in MNT1 human melanoma cells according to a protocol adapted from Reigner et al., Cell Mol Biol (1999) 45: 969-980. The assay is based on the concomitant incorporation of 2 radiolabelled tracers: ^14C-thiouracil is incorporated into the neosynthesized melanin and reflects melanogenesis, whereas ^3H-leucine is incorporated into the proteins and reflects cell viability and, consequently, the toxicity of the compounds tested.
(§2) The MNT1 cells are seeded into 96-well plates in the presence of the test compounds and of the radio-isotopes. After incubation for 24 h at 37° C., the cells are washed and the amount of the 2 radioisotopes is measured. The test compounds are evaluated in terms of dose-response so as to calculate an IC50 for inhibition of melanogenesis on the basis of the ^14C incorporation which is standardized through the ^3H incorporation. An IC50 for cell toxicity is also calculated on the basis of the ^3H incorporation.

[2] = Cell toxicity (3H-leucine incorporation) in melanogenesis assay; format: cell-based; settings: human, MNT1 human melanoma cells, incubation for 24 h
Description: as §1, §2

tyrosinase = biological target: T1, tyrosinase (Mus musculus, UniProt P11344); assay: Tyrosinase activity inhibition assay (B16F1 cell lysate, L-tyrosine/MBTH, 520 nm); format: biochemical, murine; settings: lysate of B16F1 cells, 6 hours of incubation at 37° C.; read-out: Tyrosine hydroxylase/Dopa oxidase IC50
T1 construct: the supernatant obtained constitutes the cell lysate used as tyrosinase source in the enzymatic assay; endogenous in cells; host or cells: B16F1 murine melanoma cells, stimulated with alpha-MSH; detergent/ultrasound lysate supernatant
T1 sequence (P11344 19-533): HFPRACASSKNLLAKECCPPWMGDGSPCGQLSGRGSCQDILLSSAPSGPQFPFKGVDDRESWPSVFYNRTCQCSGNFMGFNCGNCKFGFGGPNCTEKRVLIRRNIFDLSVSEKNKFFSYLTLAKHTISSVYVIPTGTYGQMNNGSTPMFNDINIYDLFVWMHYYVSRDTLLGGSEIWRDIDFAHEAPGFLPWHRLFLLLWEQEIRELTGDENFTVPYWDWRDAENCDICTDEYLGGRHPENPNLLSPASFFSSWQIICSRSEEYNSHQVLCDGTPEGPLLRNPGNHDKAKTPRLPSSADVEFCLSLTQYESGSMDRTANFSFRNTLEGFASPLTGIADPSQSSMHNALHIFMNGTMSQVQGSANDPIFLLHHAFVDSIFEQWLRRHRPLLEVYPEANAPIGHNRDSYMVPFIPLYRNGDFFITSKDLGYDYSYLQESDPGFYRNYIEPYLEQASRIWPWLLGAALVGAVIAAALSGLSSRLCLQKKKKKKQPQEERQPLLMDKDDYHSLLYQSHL
Description: The activity of the inhibitors is measured using a lysate of B16F1 cells (murine melanoma line). In the presence of the L-tyrosine substrate, the tyrosinase present in these cells catalyses the hydroxylation of L-tyrosine to give L-DOPA and then the oxidation of the L-DOPA to give dopaquinone. In the presence of MBTH (3-methyl-2-benzothiazolinone hydrazone), the dopaquinone is trapped so as to form a pink complex which absorbs at 520 nm.
The B16F1 cells are cultured in DMEM medium+10% foetal calf serum+10^−9M α-MSH for 4 days at 37° C. under 7% CO2. They are treated with trypsin, washed in PBS, counted and pelleted. The pellet is taken up at 10^7 cells/ml in lysis buffer (10 mM sodium phosphate, pH 6.8-1% Igepal) and the suspension is treated with ultrasound for 10 seconds. After centrifugation for 30 minutes at 4000 rpm, the supernatant obtained constitutes the cell lysate used as tyrosinase source in the enzymatic assay.
The assays are carried out in duplicate in 384-well plates in a total volume of 50 μl. […]
The plate is incubated at 37° C. and a spectro-photometric reading is carried out at 520 nm after 6 hours of incubation. In order to avoid any possible absorption of the products, the system uses corrected absorbance (absorbance at time 6 h—absorbance at time zero). […]

Row | Structure (SMILES) | IC50 [1] | IC50 at 24 h [2] | IC50 (tyrosinase)
1 | CCCCc1ccc(O)cc1O [4-butylresorcinol (Rucinol), 4-butylresorcinol, reference compound] | 15 µM | 55 µM | 
2 | Oc1ccc(C2CCOCC2)c(O)c1 [Compound 1, 4-(tetrahydropyran-4-yl)benzene-1,3-diol] | 1 µM | > 999 µM | 0.1 µM
3 | Oc1ccc(C2CCSCC2)c(O)c1 [Compound 2, 4-(tetrahydrothiopyran-4-yl)benzene-1,3-diol] |  |  | 0.4 µM
